According to patent US6172102A, “Pyrrole derivatives and medicinal composition” (Nippon Shinyaku Co., Ltd., priority 1995, dated 2001):

Test system: urinary bladder
Experiment: Cystometrography (rats): bladder capacity after intraduodenal administration
Format: in vivo
Conditions: female SD rats, urethane anesthesia, max of 0.5, 1, 2, 3 h, mean
Protocol: Cystometrography is a method for ascertaining the relation between intravesical pressure and bladder capacity and provides information on the time course of condition of the urinary bladder from urine filling to micturition, the possible involuntary contraction of the urinary bladder, and the contractility of the detrusor muscle during micturition.
The experiment was performed using 9 to 13-weeks old female SD rats in groups of 3-5. After a median incision was made in the abdominal region under urethane anesthesia, a polyethylene indwelling cannula was inserted into the urinary bladder dome through the apex of the urinary bladder and fixed. The other end of the cannula was connected to a T-tube for infusion of saline via one branch and changes in intravesical pressure were recorded via the other branch. When warmed saline was continuously infused into the urinary bladder at a constant rate, the urinary bladder was distended and, when the pressure reached a threshold, the urinary bladder underwent rapid contractions and at the same time a micturition was induced. This procedure was repeated until the volume of saline from the start of infusion to the threshold intravesical pressure (bladder capacity) became steady giving approximately constant values in at least two consecutive determinations. Then, the test compound was administered into the duodenum. The bladder capacity was measured immediately before administration of the test compound and 0.5, 1, 2, and 3 hours after administration. The maximum increase rate (%) in bladder capacity was calculated by means of the following equation.
Maximum increase rate in bladder capacity=[(A-B)/B]×100
where B represents the bladder capacity value immediately before administration of the test compound and A represents the maximum bladder capacity at 0.5, 1, 2, and 3 hours after administration of the test compound. The data shown are mean values.

## CCCOC(C(=O)OC1CCN(C)CC1)(c1ccccc1)c1ccccc1 [Propiverine, propiverine, reference compound]
100 mg/kg
  Maximum increase rate (%) in bladder capacity: 42.0%

## Cc1c(-c2ccccc2)[nH]c(N)c1C#N [R1, 2-Amino-3-cyano-4-methyl-5-phenylpyrrole, reference compound]
3 mg/kg
  Maximum increase rate (%) in bladder capacity: 63.6%

## Cc1c(-c2ccccc2F)[nH]c(N)c1C#N [compound 1, 2-Amino-3-cyano-4-methyl-5-(2-fluorophenyl)pyrrole]
3 mg/kg
  Maximum increase rate (%) in bladder capacity: 60.8%

## Cc1c(-c2cccnc2)[nH]c(N)c1C#N [compound 8, 2-Amino-3-cyano-4-methyl-5-(3-pyridyl)pyrrole]
30 mg/kg
  Maximum increase rate (%) in bladder capacity: 55.4%

## N#Cc1cc(-c2ccccc2)[nH]c1N [compound 15]
10 mg/kg
  Maximum increase rate (%) in bladder capacity: 53.8%

## N#Cc1cc(-c2ccc(F)cc2)[nH]c1N [compound 41]
10 mg/kg
  Maximum increase rate (%) in bladder capacity: 38.8%

## Cc1c(-c2cc(F)ccc2F)[nH]c(N)c1C#N [compound 63, 2-Amino-3-cyano-4-methyl-5-(2,5-difluorophenyl)pyrrole]
3 mg/kg
  Maximum increase rate (%) in bladder capacity: 49.9%
